Experimental data taken from US20120065199A1, “SUBSTITUTED QUINOLINES FOR USE AS VEGF INHIBITORS” (CLANOTECH AB, priority 2009, published 2012).

How the values were obtained:
PAE/VEGFR-2 cells = experiment: Cell shape assay, PAE/VEGFR-2 cells with VEGF-A; assay type: cell-based, porcine
Protocol: (§1) One of the used assays comprised a culture of PAE/VEGFR-2 and PAE/VEGFR3 cells. Morphological changes of the cells were recorded microscopically after addition of VEGF-A and VEGF-C respectively, followed by the test compound at a final concentration up to 100 μM. Growth inhibitions of the PAE/VEGFR-2 cells were detected in the presence of the compound of Example 1 according to the invention at 10 μM or lower. Furthermore, the inventive compounds were tested in PAE/VEGFR-3 cells and morphological changes of the cells were recorded microscopically after addition of the VEGF-C, followed by the test compound at a final concentration up to 100 μM. Growth inhibitions of the PAE/VEGFR-3 cells were detected in the presence of several of Examples according to the invention. The compounds were tested at 10, 50 and 100 μM. The effect of the test compounds in Table 1 is expressed as concentration of compound that inhibits the cell morphology induced by VEGF A and VEGF C. No effect means that no morphological changes were seen up to 100 μM compound concentrations.
(§2) In Table 1, data from both the cell shape assay and the chemotaxis assay are shown. Thus, under “Cell Shape: PAE/VEGFR-2 with VEGF antagonist conc. (μM)” and “Cell Shape: PAE/VEGFR-3 with VEGF antagonist conc. (μM)” the concentration of the indicated inventive compound that gave restitution of cell morphology in the cell shape assay is shown. Data under “Chemotaxis: VEGFR-2% inhibition of cell migration” and “Chemotaxis: VEGFR-3% inhibition of cell migration” show the percentage inhibition of PAE cells expressing VEGFR-2 or 3 in the presence of 10 μM of the indicated inventive compound.

[1] = tested on: T241 wt mouse fibrosarcoma tumor cells; experiment: Tumor synograft model; assay type: in vivo, C57B1 mice; conditions: oral administration 25 mg/kg/day for 10 days, subcutaneous T241 tumors in mice, compared with vehicle
Protocol: FIG. 1 is a plot of the tumor volume (mL) in mice having received subcutaneously implanted T241 wt mouse fibrosarcoma tumor cells, as a function of days of therapy by oral administration at 25 mg/kg/day of the compound of Example 1 of the invention. This is compared to administration of vehicle only.
Female 6-week-old C57B1 mice were used for tumor studies. […] T241 wt mouse fibrosarcoma tumor cells growing in logarithmic phase were harvested and resuspended in media, and a single cell solution in a volume of 100 μL was implanted subcutaneously at the right flank of each animal. 6 Mice were used in the treated groups and 6 mice were used in the control groups. Systemic treatment by oral administration injections with either 50 μl of vehicle or the inventive compound (the compound of Example 1) (25 mg/kg/day) was begun at day at day 0 (zero). The inventive compound was administrated for 10 days. Visible tumors were present day 5-10 after implantation. Primary tumors were measured with digital calipers on the days indicated. Tumor volumes were calculated according to the formula: Length×width^2×0.52 as reported. […] It takes a significant number of days for the treated animals to reach the same tumor volume as the vehicle treated animals.

[2] = tested on: PAE cells expressing VEGFR2; experiment: Chemotaxis assay (modified Boyden chamber), PAE/VEGFR-2 toward VEGF-A; assay type: cell-based, porcine; conditions: VEGF-A as chemo-attractant, absence of serum; for inhibition at 10 µM: Sus scrofa, PAE, 10 μM compound, read-out: Chemotaxis: VEGFR-2 inhibition of cell migration (%) at 10 μM compound concentration
Protocol: (§3) Additionally, the effect of the compounds was tested in this capacity of influencing chemotaxis. The test compounds were tested in porcine aorta endothelial (PAE) cells expressing VEGFR2 and VEGFR3 (PAE/VEGFR-2 and PAE/VEGFR-3). The method used is a modified Boyden chamber assay. The migration of the PAE cells expressing VEGFR2 and VEGFR3 receptors toward VEGF-A and VEGF-C respectively used as chemo-attractant was studied through micropore polycarbonate filter and was scored in the absence of serum. The assay was performed in the presence of compounds at 10 μM.
as §2

[3] = tested on: PAE cells expressing VEGFR3; experiment: Chemotaxis assay (modified Boyden chamber), PAE/VEGFR-3 toward VEGF-C; assay type: cell-based, porcine; conditions: Sus scrofa, 10 μM compound, VEGF-C as chemo-attractant, absence of serum, read-out: Chemotaxis: VEGFR-3 inhibition of cell migration (%) at 10 μM compound concentration
Protocol: as §3, §2

PAE/VEGFR-3 cells = experiment: Cell shape assay, PAE/VEGFR-3 cells with VEGF-C; assay type: cell-based, porcine; conditions: VEGF-C induced cell morphology, tested at 10, 50 and 100 μM, No effect = no morphological changes up to 100 μM; for minimal effective concentration: Sus scrofa, read-out: Cell Shape: PAE/VEGFR-3 with VEGF antagonist conc. (μM) that gives inhibition
Protocol: as §1, §2

[4] = VEGF-A induced cell morphology, tested at 10, 50 and 100 μM, No effect = no morphological changes up to 100 μM

Row | SMILES | minimal effective concentration (PAE/VEGFR-2 cells; Sus scrofa, VEGF-A induced cell morphology, tested at 10, 50 and 100 μM, No effect = no morphological changes up to 100 μM, read-out: Cell Shape: PAE/VEGFR-2 with VEGF antagonist conc. (μM) that gives inhibition) [µM] | Concentration at which growth inhibitions of the PAE/VEGFR-2 cells were detected (PAE/VEGFR-2 cells; after addition of VEGF-A, final concentration up to 100 μM) [µM] | Tumor volume, effectiveness in the animal model (FIG. 1) [1] | inhibition at 10 µM [2] [%] | inhibition at 10 µM [3] [%] | Cell Shape: PAE/VEGFR-3 with VEGF antagonist conc. (μM) that gives inhibition (PAE/VEGFR-3 cells) | Cell Shape: PAE/VEGFR-2 with VEGF antagonist conc. (μM) that gives inhibition (PAE/VEGFR-2 cells; [4]) | minimal effective concentration (PAE/VEGFR-3 cells) [µM] | Chemotaxis: VEGFR-2 inhibition of cell migration (%) at 10 μM compound concentration [2]
1 | CNC(=O)c1ccc2ncc(C(=O)OCn3ccnc3)c(Nc3ccc(OC)cc3)c2c1 [Example 1, (1H-imidazol-1-yl)methyl 4-(4-methoxyphenylamino)-6-(methylcarbamoyl)-quinoline-3-carboxylate] | 10 | ≤ 10 | convincing results for its effectiveness | 52 | 53 | – | – | – | –
2 | CNC(=O)c1ccc2ncc(C(=O)OCN(C)C(=O)OC)c(Nc3ccc(OC)cc3)c2c1 [Example 2, (Methoxycarbonyl(methyl)amino)methyl 4-(4-methoxyphenylamino)-6-(methylcarbamoyl)quinoline-3-carboxylate] | – | – | – | 39 | 45 | No effect | No effect | – | –
3 | CNC(=O)c1ccc2ncc(C(=O)OCN(C)C(=O)c3ccccc3)c(Nc3ccc(OC)cc3)c2c1 [Example 3, (N-methylbenzamido)methyl 4-(4-methoxyphenylamino)-6-(methylcarbamoyl)-quinoline-3-carboxylate] | – | – | – | 28 | 36 | No effect | No effect | – | –
4 | CNC(=O)c1ccc2ncc(C(=O)OCCN(C)C)c(Nc3ccc(OC)cc3)c2c1 [Example 4, 2-(dimethylamino)ethyl 4-(4-methoxyphenylamino)-6-(methylcarbamoyl)-quinoline-3-carboxylate] | – | – | – | 21 | 63 | – | No effect | 100 | –
5 | CNC(=O)c1ccc2ncc(C(=O)OCC(=O)N(C)C)c(Nc3ccc(OC)cc3)c2c1 [Example 5, 2-(dimethylamino)-2-oxoethyl-4-(4-methoxyphenylamino)-6-(methyl-carbamoyl)quinoline-3-carboxylate] | – | – | – | 2 | 64 | – | No effect | 100 | –
6 | CNC(=O)c1ccc2ncc(C(=O)OC(C)C(=O)OC)c(Nc3ccc(OC)cc3)c2c1 (stereo not shown) [Example 6, (2-Methoxy-1-methyl-2-oxo-ethyl) 4-[(4-methoxyphenyl)amino]-6-(methylcarbamoyl)quinoline-3-carboxylate] | – | – | – | 23 | 69 | – | No effect | 50 | –
7 | CNC(=O)c1ccc2ncc(C(=O)OCOC(C)=O)c(Nc3ccc(OC)cc3)c2c1 [Example 7, Acetoxymethyl 4-[(4-methoxyphenyl)amino]-6-(methylcarbamoyl)quinoline-3-carboxylate] | – | – | – | – | 25 | – | No effect | 50 | No effect
8 | CNC(=O)c1ccc2ncc(C(=O)OCN(c3ccccc3)S(C)(=O)=O)c(Nc3ccc(OC)cc3)c2c1 [Example 8, (Methylsulfonyl(phenyl)amino)methyl 4-[(4-methoxyphenyl)amino]-6-(methylcarbamoyl)quinoline-3-carboxylate] | – | – | – | – | 18 | – | No effect | 100 | No effect
9 | CNC(=O)c1ccc2ncc(C(=O)OC(C)C(=O)O)c(Nc3ccc(OC)cc3)c2c1 (stereo not shown) [Example 9, 2-[4-[(4-Methoxyphenyl)amino]-6-(methylcarbamoyl)quinoline-3-carbonyl]oxypropanoic Acid] | – | – | – | 38 | 52 | No effect | No effect | – | –
10 | CNC(=O)c1ccc2ncc(C(=O)OCCn3ccnc3)c(Nc3ccc(OC)cc3)c2c1 [Example 10, 2-Imidazol-1-ylethyl 4-[(4-methoxyphenyl)amino]-6-(methylcarbamoyl)-quinoline-3-carboxylate] | – | – | – | 32 | 53 | – | No effect | 10 | –
11 | CNC(=O)c1ccc2ncc(C(=O)OCCN3CCOCC3)c(Nc3ccc(OC)cc3)c2c1 [Example 11, 2-Morpholinoethyl 4-[(4-methoxyphenyl)amino]-6-(methylcarbamoyl)-quinoline-3-carboxylate] | – | – | – | 10 | 83 | – | No effect | 10 | –
12 | CNC(=O)c1ccc2ncc(C(=O)OCc3oc(=O)oc3C)c(Nc3ccc(OC)cc3)c2c1 [Example 12, (5-Methyl-2-oxo-1,3-dioxol-4-yl)methyl 4-[(4-methoxyphenyl)amino]-6-(methylcarbamoyl)quinoline-3-carboxylate] | – | – | – | – | 46 | – | No effect | 100 | No effect
13 | CNC(=O)c1ccc2ncc(C(=O)OCCn3ccnc3)c(Nc3ccc(F)cc3)c2c1 [Example 13, 4-(4-Fluoro-phenylamino)-6-methylcarbamoyl-quinoline-3-carboxylic acid 2-imidazol-1-yl-ethylester] | – | – | – | – | 27 | – | No effect | 50 | No effect
14 | CNC(=O)c1ccc2ncc(C(=O)OCn3ccnc3)c(Nc3ccc(F)cc3)c2c1 [Example 14, 4-(4-Fluoro-phenylamino)-6-methylcarbamoyl-quinoline-3-carboxylic acid imidazol-1-yl-methylester] | – | – | – | – | 30 | – | No effect | 50 | No effect
15 | CNC(=O)c1ccc2ncc(C(=O)OCCN3CCOCC3)c(Nc3ccc(F)cc3)c2c1 [Example 15, 2-Morpholinoethyl 4-[(4-fluorophenyl)amino]-6-(methylcarbamoyl)quinoline-3-carboxylate] | – | – | – | 31 | 59 | – | No effect | 100 | –
